# According to patent US20110288057A1, “SALICYLIC ACID DERIVATIVES BEING FARNESYL PYROPHOSPHATE SYNTHASE ACTIVITY INHIBITORS” (Novartis AG, priority 2008, published 2011):
# pIC50: −log10 of the molar value.
# Target: T1, Recombinant human Farnesyl Pyrophosphate synthase (FPPS) (Homo sapiens, UniProt P14324)
# T1 construct: made in house
# T1 sequence (P14324 72-419 limits assumed): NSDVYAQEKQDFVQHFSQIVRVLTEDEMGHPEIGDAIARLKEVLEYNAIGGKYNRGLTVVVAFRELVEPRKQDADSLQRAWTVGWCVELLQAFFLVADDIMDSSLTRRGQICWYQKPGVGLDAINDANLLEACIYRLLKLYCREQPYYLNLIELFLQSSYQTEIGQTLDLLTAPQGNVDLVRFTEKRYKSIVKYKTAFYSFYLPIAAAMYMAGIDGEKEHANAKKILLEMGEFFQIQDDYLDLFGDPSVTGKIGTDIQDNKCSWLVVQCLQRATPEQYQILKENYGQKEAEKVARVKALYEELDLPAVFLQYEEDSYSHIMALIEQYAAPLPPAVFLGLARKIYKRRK
# Experiment: FPPS SPA (scintillation proximity FlashPlate assay of FPPS inhibition)
# Format: biochemical
# Details: Example 13 table; FPPS SPA; read-out: IC50
row,pIC50,Compound
1,6.59,COc1ccc(-c2ccc(C(=O)O)c(OCc3cccc4ccccc34)c2)cc1OC [13 ab)]
2,5.84,O=C(O)c1ccc(-c2ccc(Cl)c(Cl)c2)cc1OCc1cccc2ccccc12 [13 ac)]
3,6.30,O=C(O)c1ccc(-c2cccc(CO)c2)cc1OCc1cccc2ccccc12 [13 ad)]
4,< 5.00,O=C(O)c1ccc(-c2cccc(OC(F)(F)F)c2)cc1OCc1cccc2ccccc12 [13 ae)]
5,5.81,COc1cccc(-c2ccc(C(=O)O)c(OCc3cccc4ccccc34)c2)c1 [13 af)]
6,5.96,Cc1cccc(C)c1-c1ccc(C(=O)O)c(OCc2cccc3ccccc23)c1 [13 ag)]
7,6.59,O=C(O)c1ccc(-c2cccc3[nH]ccc23)cc1OCc1cccc2ccccc12 [13 ah)]
8,6.49,O=C(O)c1ccc(-c2ccc(F)c(F)c2)cc1OCc1cccc2ccccc12 [13 ai)]
9,6.26,O=C(O)c1ccc(-c2ccoc2)cc1OCc1cccc2ccccc12 [13 aj)]
10,6.64,O=C(O)c1ccc(-c2ccccc2F)cc1OCc1cccc2ccccc12 [13 ak)]
11,5.95,O=C(O)c1ccc(-c2cc3ccccc3o2)cc1OCc1cccc2ccccc12 [13 al)]
12,6.47,O=C(O)c1ccc(-c2ccc3[nH]ccc3c2)cc1OCc1cccc2ccccc12 [13 am)]
13,5.87,O=C(O)c1ccc(-c2csc3ccccc23)cc1OCc1cccc2ccccc12 [13 an)]
14,6.38,O=C(O)c1ccc(-c2ccc3c(c2)OCCO3)cc1OCc1cccc2ccccc12 [13 ao)]
15,5.71,COc1ccccc1-c1ccc(C(=O)O)c(OCc2cccc3ccccc23)c1 [13 ap)]
16,5.94,O=C(O)c1ccc(-c2cccc(F)c2)cc1OCc1cccc2ccccc12 [13 aq)]
17,6.28,Cc1ccccc1-c1ccc(C(=O)O)c(OCc2cccc3ccccc23)c1 [13 ar)]
18,6.42,O=C(O)c1ccc(-c2ccc(CO)cc2)cc1OCc1cccc2ccccc12 [13 as)]
19,6.42,O=C(O)c1ccc(-c2cccc(O)c2)cc1OCc1cccc2ccccc12 [13 au)]
20,6.36,Cc1cc(Cl)ccc1-c1ccc(C(=O)O)c(OCc2cccc3ccccc23)c1 [13 aw)]
21,6.40,Cc1cccc(-c2ccc(C(=O)O)c(OCc3cccc4ccccc34)c2)c1 [13 ax)]
22,6.42,COc1ccc2cc(-c3ccc(C(=O)O)c(OCc4cccc5ccccc45)c3)ccc2c1 [13 ay)]
23,6.62,O=C(O)c1ccc(-c2ccc3c(c2)OCO3)cc1OCc1cccc2ccccc12 [13 ba)]
24,6.57,Cn1ccc2cc(-c3ccc(C(=O)O)c(OCc4cccc5ccccc45)c3)ccc21 [13 ca)]
25,6.89,CC(=O)Nc1ccc(-c2ccc(C(=O)O)c(OCc3cccc4ccccc34)c2)cc1 [13 da)]

# Same assay, conditions: Example 15 table; FPPS SPA; read-out: IC50
row,pIC50,Compound
1,6.20,O=C(O)c1ccc(NC2CCCC2)cc1OCc1cccc2ccccc12 [15 aa)]
2,5.64,O=C(O)c1ccc(NCCCO)cc1OCc1cccc2ccccc12 [15 ab)]
3,6.28,O=C(O)c1ccc(N2CCCCCC2)cc1OCc1cccc2ccccc12 [15 ac)]
4,6.33,CC(C)(C)CNc1ccc(C(=O)O)c(OCc2cccc3ccccc23)c1 [15 ad)]
5,5.86,COCCN(C)c1ccc(C(=O)O)c(OCc2cccc3ccccc23)c1 [15 ae)]
6,6.14,CN(CCO)c1ccc(C(=O)O)c(OCc2cccc3ccccc23)c1 [15 af)]
7,5.61,O=C(O)c1ccc(NCC2CCCCC2)cc1OCc1cccc2ccccc12 [15 ag)]
8,5.88,CCCN(CC1CC1)c1ccc(C(=O)O)c(OCc2cccc3ccccc23)c1 [15 ah)]
9,5.45,C[C@H](Nc1ccc(C(=O)O)c(OCc2cccc3ccccc23)c1)C1CCCCC1 [15 ai)]
10,5.75,O=C(O)c1ccc(NC2CCCCCC2)cc1OCc1cccc2ccccc12 [15 aj)]
11,5.91,CC1CCC(Nc2ccc(C(=O)O)c(OCc3cccc4ccccc34)c2)CC1 (centres unmarked) [15 ak)]
12,6.43,CCCNc1ccc(C(=O)O)c(OCc2cccc3ccccc23)c1 [15 al)]
13,6.72,O=C(O)c1ccc(N[C@H]2CC[C@H](O)CC2)cc1OCc1cccc2ccccc12 [15 am)]
14,6.14,CCNc1ccc(C(=O)O)c(OCc2cccc3ccccc23)c1 [15 ao)]
15,4.76,CN1CCCC1CCNc1ccc(C(=O)O)c(OCc2cccc3ccccc23)c1 (centres unmarked) [15 ap)]
16,6.19,CC(Nc1ccc(C(=O)O)c(OCc2cccc3ccccc23)c1)C(C)(C)C (centres unmarked) [15 aq)]
17,5.09,COCCNc1ccc(C(=O)O)c(OCc2cccc3ccccc23)c1 [15 ar)]
18,5.19,CC(=O)N1CCN(c2ccc(C(=O)O)c(OCc3cccc4ccccc34)c2)CC1 [15 as)]
19,5.19,CN1CCCN(c2ccc(C(=O)O)c(OCc3cccc4ccccc34)c2)CC1 [15 at)]
20,5.50,O=C(O)c1ccc(N2CCOCC2)cc1OCc1cccc2ccccc12 [15 au)]
21,5.32,CN1CCC(Nc2ccc(C(=O)O)c(OCc3cccc4ccccc34)c2)CC1 [15 aw)]
22,4.58,CCN(CC)CCN(C)c1ccc(C(=O)O)c(OCc2cccc3ccccc23)c1 [15 az)]
23,4.41,CN1CCN(c2ccc(C(=O)O)c(OCc3cccc4ccccc34)c2)CC1 [15 ba)]

# Same assay, conditions: Example 16 table; FPPS SPA; read-out: IC50
row,pIC50,Compound
1,6.68,O=C(O)c1ccc(NCc2ccccc2)cc1OCc1cccc2ccccc12 [16 b)]
2,5.92,O=C(O)c1ccc(NCC2CC2)cc1OCc1cccc2ccccc12 [16 c)]

# Same assay, conditions: IC50, Example 13 table; FPPS SPA
row,pIC50,Compound
1,6.52,O=C(O)c1ccc(-c2ccc(F)cc2)cc1OCc1cccc2ccccc12 [13 at)]
2,6.16,O=C(O)c1ccc(-c2ccc(Cl)cc2)cc1OCc1cccc2ccccc12 [13 av)]
3,6.42,O=C(O)c1ccc(-c2ccc(O)cc2)cc1OCc1cccc2ccccc12 [13 az)]

# Same assay, conditions: IC50, Example 15 table; FPPS SPA
row,pIC50,Compound
1,6.72,CN(C)c1ccc(C(=O)O)c(OCc2cccc3ccccc23)c1 [15 an)]

# Same assay, conditions: IC50 on FPPS, test system termed "FPS SPA" (Example 18)
row,pIC50,Compound
1,4.90,O=C(O)c1ccccc1OCc1cccc2ccccc12 [Example 17 r)]

# Same assay, conditions: Inhibition according to the FPPS SPA (Example 21); read-out: IC50
row,pIC50,Compound
1,6.11,CCN(CC)c1ccc(C(=O)O)c(OCc2c(Cl)ccc3ccccc23)c1 [17 a)]
2,6.47,Cc1ccc2ccccc2c1COc1ccccc1C(=O)O [17 b)]
3,6.32,Cc1ccc2ccccc2c1COc1cc(-n2c(C)ccc2C)ccc1C(=O)O [17 c)]
4,6.18,CCN(CC)c1ccc(C(=O)O)c(OCc2c(C)ccc3ccccc23)c1 [17 d)]
5,5.74,Cc1ccc(COc2ccccc2C(=O)O)c2ccccc12 [17 e)]
6,5.74,CCN(CC)c1ccc(C(=O)O)c(OCc2cccc3ccc(Cl)cc23)c1 [17 f)]
7,6.62,Cc1ccc(C)n1-c1ccc(C(=O)O)c(OCc2cccc3ccccc23)c1 [17 g)]
8,6.08,O=C(O)c1cc2ccccc2cc1OCc1cccc2ccccc12 [17 h)]
9,6.40,CCN(CC)c1ccc(C(=O)O)c(OCc2cccc3ccccc23)c1 [17 i)]
10,5.53,O=C(O)c1cc(Cl)ccc1OCc1cccc2ccccc12 [17 j)]
11,6.09,O=C(O)c1ccc(C(F)(F)F)cc1OCc1cccc2ccccc12 [17 k)]
12,5.54,O=C(O)c1ccc(OC(F)(F)F)cc1OCc1cccc2ccccc12 [17 l)]
13,5.72,CC(C)CCOc1ccc(C(=O)O)c(OCc2cccc3ccccc23)c1 [17 m)]
14,6.14,O=C(O)c1ccc(OCc2ccccc2)cc1OCc1cccc2ccccc12 [17 n)]
15,6.06,COc1ccc(OCc2cccc3ccccc23)c(C(=O)O)c1 [17 o)]
16,5.60,Cc1cc(O)c(C(=O)O)c(OCc2cccc3ccccc23)c1 [17 p)]
17,5.17,O=C(O)c1ccc(Br)cc1OCc1cccc2ccccc12 [17 q)]
18,4.89,O=C(O)c1ccccc1OCc1cccc2ccccc12 [17 r)]
19,5.87,COc1ccc(C(=O)O)c(OCc2cccc3ccccc23)c1 [17 s)]
